Source: patent US20100021954A1, “High capacity nanoparticulate immobilization surface” (priority 2008, published 2010)

Molecular target: T1, streptavidin (Streptomyces avidinii, UniProt P22629)
T1 construct: purchased Sigma-Aldrich S4762
Assay: fl-biotin binding on SA previously immobilized on a PGL coated Epic plate
Conditions: SA immobilized at 1.5 micrograms/mL with KH2PO4 on PGL Epic plate (PGL formulation of Example 4A)
Protocol: Materials: Fluorescein-Biotin from Sigma-Aldrich ref. B943 1; 0.01 M PBS (phosphate buffer); 0.0027 M potassium chloride; and 0.137 M sodium chloride pH 7.4; and dimethylsulfoxide (DMSO).
Preparation of 800 nM fl-biotin solution: 16 microliters of 500 μM fl-biotin solution in DMSO were added to 10 mL of PBS and mixed.
Preparation of PBS/DMSO solution: 16 microliters of DMSO were added to […] of PBS.
Each well of the Epic® plate from Examples 7A, 7B, 9, and 10 was rinsed three (3) times with water using an automatic pipettor. Then 75 microliters of the PBS/DMSO solution were added to each well and the alignment of the optical parts was performed. The plate was left undisturbed until reaching a stable baseline. After reaching a stable base line, 75 microliters of the fl-biotin solution were added to each well and mixed continuously for 2 mins using an automatic pipettor. In the course of the mixing, the binding curve was recorded in real time.
Materials: Unlabeled Streptavidine; KH2PO4 from Sigma-Aldrich ref. P5504; and PBS buffer. First, a […] KH2PO4 solution was prepared and its pH was adjusted to 8. Then 75 microliters of this solution were added to each well from a PGL Epic® coated plate prepared using PGL formulation of Example 4A. The alignment of the optical parts was performed and the plate was left undisturbed until a stable baseline was reached. […]

T1 sequence (P22629 25-183): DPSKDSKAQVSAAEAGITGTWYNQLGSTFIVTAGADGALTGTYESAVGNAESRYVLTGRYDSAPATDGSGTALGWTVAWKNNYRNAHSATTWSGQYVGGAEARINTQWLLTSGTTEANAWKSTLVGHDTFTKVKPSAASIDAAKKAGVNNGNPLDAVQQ

With O=C(CCCCCNC(=O)CCCC[C@@H]1SC[C@@H]2NC(=O)N[C@@H]21)NCCCCCNC(=S)Nc1ccc2c(c1)C(=O)OC21c2ccc(O)cc2Oc2cc(O)ccc21 [fl-biotin, Fluorescein-Biotin] the “binding of fl-biotin on immobilized SA” value was “easily observed”.
